# Values quoted from earlier work as cited in patent publication US20070128633A1, “Cell-free protein expression systems and methods of use thereof” (ChemBridge Research Laboratories, Inc., priority 2005, published 2007).
# pKd: −log10 of the molar value.
# Columns and labels:
# streptavidin = streptavidin (Streptomyces avidinii, UniProt P22629); details: tag fused to the C- or N-termini of a recombinant protein; Skerra and Schmidt (2000)
# [1] = target: KIT active site mutation D816V (Homo sapiens, UniProt P10721, D816V); details: sporadic adult human mastocytosis, Ma et al. (2002)
# Sequence of KIT active site mutation D816V (P10721 26-976 D816V): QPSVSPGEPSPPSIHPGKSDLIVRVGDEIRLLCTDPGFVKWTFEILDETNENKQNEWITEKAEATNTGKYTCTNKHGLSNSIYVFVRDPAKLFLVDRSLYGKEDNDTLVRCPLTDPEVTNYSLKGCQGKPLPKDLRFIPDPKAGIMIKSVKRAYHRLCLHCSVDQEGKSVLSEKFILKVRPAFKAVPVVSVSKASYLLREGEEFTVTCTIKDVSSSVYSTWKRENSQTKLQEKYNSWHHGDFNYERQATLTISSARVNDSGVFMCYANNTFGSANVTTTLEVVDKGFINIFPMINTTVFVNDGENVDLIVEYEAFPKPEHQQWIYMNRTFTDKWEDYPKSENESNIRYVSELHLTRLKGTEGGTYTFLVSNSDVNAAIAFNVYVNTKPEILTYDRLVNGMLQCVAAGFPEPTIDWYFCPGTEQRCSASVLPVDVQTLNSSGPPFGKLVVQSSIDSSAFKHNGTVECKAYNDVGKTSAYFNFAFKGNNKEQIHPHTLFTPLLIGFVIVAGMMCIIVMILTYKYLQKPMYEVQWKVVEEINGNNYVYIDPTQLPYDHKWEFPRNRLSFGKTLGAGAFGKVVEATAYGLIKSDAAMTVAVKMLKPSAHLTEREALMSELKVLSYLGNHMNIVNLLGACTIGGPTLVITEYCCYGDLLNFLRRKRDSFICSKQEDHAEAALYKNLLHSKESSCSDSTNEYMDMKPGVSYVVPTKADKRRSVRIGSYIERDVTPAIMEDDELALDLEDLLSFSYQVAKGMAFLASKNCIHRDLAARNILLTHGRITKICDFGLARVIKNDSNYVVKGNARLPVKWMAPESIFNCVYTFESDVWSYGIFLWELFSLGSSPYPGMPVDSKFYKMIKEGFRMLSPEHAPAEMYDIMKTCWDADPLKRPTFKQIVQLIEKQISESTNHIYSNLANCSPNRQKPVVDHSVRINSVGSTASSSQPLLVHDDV
# [2] = tested on: KIT variants containing 2 out of these 6 mutations; details: KIT variants with 2 of 6 catalytic domain point mutations found in seminomas; Kemmer et al. (2004)
# Sequence of streptavidin (P22629 25-183, species assumed): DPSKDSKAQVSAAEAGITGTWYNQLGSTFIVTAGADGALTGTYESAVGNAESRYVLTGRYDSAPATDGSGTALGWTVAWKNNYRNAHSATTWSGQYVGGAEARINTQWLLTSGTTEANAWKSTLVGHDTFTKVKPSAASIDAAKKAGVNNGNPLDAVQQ
Compound,pKd (streptavidin),response to imatinib treatment [1],inhibition of KIT variants [2]
WSHPQFEK [Strep-Tag II],4.74,–,–
Cc1ccc(NC(=O)c2ccc(CN3CCN(C)CC3)cc2)cc1Nc1nccc(-c2cccnc2)n1 [imatinib],–,resistance,not inhibited
